According to ChEMBL document CHEMBL3600363, “Discovery of potent, selective small molecule inhibitors of α-subtype of type III phosphatidylinositol-4-kinase (PI4KIIIα)” (Bioorg Med Chem Lett, 2015):

Experiments:
[1] = biological target: Phosphatidylinositol 4-kinase alpha (Homo sapiens, UniProt P42356); assay: Inhibition of N-terminal FLAG-tagged human full length recombinant PI4K3alpha using D-myo-phosphatidylinositol substrate and ATP incubated for 45 mins by ADP-Glo kinase Assay
[2] = biological target: Phosphatidylinositol 4-kinase beta (Homo sapiens, UniProt Q9UBF8); assay: Inhibition of N-terminal GST-tagged human full length recombinant PI4K3beta expressed in Sf9 cells using D-myo-phosphatidylinositol substrate and ATP incubated for 45 mins by ADP-Glo kinase Assay
[3] = biological target: Phosphatidylinositol 4,5-bisphosphate 3-kinase catalytic subunit alpha isoform (Homo sapiens, UniProt P42336); assay: Inhibition of PI3Kalpha (unknown origin) pre-incubated for 20 mins before phosphatidylinositol 4, 5-bisphosphate substrate addition by kinase-glo plus luminescence assay
[4] = biological target: Phosphatidylinositol 4,5-bisphosphate 3-kinase catalytic subunit beta isoform (Homo sapiens, UniProt P42338); assay: Inhibition of PI3Kbeta (unknown origin) pre-incubated for 20 mins before phosphatidylinositol 4, 5-bisphosphate substrate addition by kinase-glo plus luminescence assay
[5] = biological target: Phosphatidylinositol 4,5-bisphosphate 3-kinase catalytic subunit gamma isoform (Homo sapiens, UniProt P48736); assay: Inhibition of PI3Kgamma (unknown origin) pre-incubated for 20 mins before phosphatidylinositol 4, 5-bisphosphate substrate addition by kinase-glo plus luminescence assay
[6] = biological target: T1, Phosphatidylinositol 4,5-bisphosphate 3-kinase catalytic subunit delta isoform (Homo sapiens, UniProt O00329); assay: Inhibition of PI3Kdelta (unknown origin) pre-incubated for 20 mins before phosphatidylinositol 4, 5-bisphosphate substrate addition by kinase-glo plus luminescence assay
T1 sequence (O00329 whole entry): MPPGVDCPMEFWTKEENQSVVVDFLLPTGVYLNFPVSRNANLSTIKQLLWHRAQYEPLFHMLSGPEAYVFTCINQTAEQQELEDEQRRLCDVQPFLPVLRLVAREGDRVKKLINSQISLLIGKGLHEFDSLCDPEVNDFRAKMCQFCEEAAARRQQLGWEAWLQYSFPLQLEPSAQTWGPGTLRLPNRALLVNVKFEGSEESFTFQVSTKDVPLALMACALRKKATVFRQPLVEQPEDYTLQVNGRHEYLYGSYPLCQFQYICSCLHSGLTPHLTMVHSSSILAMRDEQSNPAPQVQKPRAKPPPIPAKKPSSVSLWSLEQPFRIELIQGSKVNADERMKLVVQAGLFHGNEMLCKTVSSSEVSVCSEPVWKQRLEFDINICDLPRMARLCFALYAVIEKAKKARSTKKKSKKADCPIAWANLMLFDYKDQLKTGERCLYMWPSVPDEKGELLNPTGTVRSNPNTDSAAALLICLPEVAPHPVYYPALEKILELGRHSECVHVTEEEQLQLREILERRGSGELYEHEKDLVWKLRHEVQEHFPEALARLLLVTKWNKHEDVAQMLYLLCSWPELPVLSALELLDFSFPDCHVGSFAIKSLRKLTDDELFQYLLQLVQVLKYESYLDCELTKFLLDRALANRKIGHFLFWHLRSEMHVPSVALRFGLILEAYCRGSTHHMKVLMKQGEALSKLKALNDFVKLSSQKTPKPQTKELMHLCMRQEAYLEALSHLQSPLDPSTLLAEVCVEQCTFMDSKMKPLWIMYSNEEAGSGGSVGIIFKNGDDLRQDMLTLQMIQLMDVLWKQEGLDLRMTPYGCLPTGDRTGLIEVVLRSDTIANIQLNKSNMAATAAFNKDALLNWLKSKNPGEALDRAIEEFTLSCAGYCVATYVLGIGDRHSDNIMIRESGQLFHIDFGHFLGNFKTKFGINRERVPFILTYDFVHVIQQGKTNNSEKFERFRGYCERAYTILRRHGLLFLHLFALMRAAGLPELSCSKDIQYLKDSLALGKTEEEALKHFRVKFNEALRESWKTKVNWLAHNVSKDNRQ

[7] = biological target: Phosphatidylinositol 4-phosphate 5-kinase type-1 gamma (Homo sapiens, UniProt O60331); assay: Inhibition of PIP5K1C (unknown origin) using D-myo-phosphatidylinositol 4-phosphate substrate and ATP by ADP-Glo kinase Assay
Chain of Phosphatidylinositol 4-phosphate 5-kinase type-1 gamma (O60331 whole entry): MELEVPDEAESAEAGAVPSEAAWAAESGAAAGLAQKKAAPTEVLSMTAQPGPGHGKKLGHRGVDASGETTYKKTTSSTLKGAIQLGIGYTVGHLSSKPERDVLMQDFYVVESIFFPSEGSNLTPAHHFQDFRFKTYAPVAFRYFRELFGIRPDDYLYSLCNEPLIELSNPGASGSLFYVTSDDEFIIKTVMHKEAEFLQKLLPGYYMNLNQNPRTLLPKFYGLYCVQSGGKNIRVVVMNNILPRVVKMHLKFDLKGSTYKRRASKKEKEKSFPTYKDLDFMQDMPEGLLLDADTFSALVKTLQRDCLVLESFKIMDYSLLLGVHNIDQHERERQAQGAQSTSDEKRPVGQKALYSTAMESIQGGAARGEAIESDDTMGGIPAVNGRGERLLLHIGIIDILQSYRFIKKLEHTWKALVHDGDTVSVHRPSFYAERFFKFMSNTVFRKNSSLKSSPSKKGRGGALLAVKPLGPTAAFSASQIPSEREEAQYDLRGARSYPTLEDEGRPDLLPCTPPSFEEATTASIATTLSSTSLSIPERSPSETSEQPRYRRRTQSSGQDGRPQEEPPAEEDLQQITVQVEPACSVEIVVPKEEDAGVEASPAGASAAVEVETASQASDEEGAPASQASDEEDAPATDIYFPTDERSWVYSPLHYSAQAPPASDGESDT

Chain of Phosphatidylinositol 4,5-bisphosphate 3-kinase catalytic subunit gamma isoform (P48736 whole entry, canonical isoform): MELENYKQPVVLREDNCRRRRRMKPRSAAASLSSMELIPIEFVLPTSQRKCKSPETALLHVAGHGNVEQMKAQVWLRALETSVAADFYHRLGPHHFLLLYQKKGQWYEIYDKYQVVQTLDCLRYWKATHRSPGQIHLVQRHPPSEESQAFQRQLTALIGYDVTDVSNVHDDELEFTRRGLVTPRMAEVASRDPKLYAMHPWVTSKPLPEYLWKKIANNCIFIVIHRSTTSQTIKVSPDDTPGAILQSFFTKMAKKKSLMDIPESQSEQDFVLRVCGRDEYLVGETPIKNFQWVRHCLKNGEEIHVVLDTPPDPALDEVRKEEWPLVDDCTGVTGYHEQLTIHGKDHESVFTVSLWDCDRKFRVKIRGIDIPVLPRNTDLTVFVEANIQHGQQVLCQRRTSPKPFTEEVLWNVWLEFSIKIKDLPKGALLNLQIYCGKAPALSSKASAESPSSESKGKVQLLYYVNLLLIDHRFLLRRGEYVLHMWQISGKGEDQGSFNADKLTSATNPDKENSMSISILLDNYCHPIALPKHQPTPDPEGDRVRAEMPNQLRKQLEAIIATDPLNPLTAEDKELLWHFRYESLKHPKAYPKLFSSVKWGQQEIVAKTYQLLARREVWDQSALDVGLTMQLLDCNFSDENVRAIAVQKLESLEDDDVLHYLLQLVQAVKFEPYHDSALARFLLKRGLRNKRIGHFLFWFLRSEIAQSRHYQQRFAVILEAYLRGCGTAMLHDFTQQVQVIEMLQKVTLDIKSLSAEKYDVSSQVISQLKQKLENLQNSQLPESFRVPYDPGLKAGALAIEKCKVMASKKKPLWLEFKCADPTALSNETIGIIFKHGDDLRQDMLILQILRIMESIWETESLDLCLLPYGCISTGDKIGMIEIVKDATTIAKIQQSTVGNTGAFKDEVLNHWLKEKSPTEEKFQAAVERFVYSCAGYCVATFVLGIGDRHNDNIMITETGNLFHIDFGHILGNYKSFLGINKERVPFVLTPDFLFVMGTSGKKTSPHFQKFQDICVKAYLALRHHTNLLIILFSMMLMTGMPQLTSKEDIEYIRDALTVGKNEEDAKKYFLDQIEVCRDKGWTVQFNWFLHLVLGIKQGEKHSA
Chain of Phosphatidylinositol 4-kinase beta (Q9UBF8 whole entry, canonical isoform): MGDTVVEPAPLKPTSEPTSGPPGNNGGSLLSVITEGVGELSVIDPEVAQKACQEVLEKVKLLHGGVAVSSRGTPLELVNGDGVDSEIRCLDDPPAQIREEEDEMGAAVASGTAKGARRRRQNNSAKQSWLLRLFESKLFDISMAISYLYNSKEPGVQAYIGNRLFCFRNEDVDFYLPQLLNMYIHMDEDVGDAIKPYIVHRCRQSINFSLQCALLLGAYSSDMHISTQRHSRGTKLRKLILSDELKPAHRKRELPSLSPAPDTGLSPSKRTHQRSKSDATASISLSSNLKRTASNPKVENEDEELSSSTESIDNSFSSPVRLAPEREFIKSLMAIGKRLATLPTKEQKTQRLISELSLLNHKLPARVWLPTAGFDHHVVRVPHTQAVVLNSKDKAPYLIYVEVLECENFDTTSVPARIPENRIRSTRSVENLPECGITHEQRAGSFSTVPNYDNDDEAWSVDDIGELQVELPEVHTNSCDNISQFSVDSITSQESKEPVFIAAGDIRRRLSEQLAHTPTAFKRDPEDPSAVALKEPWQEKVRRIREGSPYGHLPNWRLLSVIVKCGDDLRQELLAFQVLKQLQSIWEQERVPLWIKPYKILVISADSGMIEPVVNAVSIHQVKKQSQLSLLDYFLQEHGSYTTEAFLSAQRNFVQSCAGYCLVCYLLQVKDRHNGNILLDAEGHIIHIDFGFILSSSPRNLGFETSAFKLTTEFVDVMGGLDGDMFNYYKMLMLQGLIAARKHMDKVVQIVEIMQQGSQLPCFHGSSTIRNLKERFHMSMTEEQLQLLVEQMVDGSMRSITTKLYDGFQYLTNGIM
Chain of Phosphatidylinositol 4,5-bisphosphate 3-kinase catalytic subunit alpha isoform (P42336 whole entry, canonical isoform): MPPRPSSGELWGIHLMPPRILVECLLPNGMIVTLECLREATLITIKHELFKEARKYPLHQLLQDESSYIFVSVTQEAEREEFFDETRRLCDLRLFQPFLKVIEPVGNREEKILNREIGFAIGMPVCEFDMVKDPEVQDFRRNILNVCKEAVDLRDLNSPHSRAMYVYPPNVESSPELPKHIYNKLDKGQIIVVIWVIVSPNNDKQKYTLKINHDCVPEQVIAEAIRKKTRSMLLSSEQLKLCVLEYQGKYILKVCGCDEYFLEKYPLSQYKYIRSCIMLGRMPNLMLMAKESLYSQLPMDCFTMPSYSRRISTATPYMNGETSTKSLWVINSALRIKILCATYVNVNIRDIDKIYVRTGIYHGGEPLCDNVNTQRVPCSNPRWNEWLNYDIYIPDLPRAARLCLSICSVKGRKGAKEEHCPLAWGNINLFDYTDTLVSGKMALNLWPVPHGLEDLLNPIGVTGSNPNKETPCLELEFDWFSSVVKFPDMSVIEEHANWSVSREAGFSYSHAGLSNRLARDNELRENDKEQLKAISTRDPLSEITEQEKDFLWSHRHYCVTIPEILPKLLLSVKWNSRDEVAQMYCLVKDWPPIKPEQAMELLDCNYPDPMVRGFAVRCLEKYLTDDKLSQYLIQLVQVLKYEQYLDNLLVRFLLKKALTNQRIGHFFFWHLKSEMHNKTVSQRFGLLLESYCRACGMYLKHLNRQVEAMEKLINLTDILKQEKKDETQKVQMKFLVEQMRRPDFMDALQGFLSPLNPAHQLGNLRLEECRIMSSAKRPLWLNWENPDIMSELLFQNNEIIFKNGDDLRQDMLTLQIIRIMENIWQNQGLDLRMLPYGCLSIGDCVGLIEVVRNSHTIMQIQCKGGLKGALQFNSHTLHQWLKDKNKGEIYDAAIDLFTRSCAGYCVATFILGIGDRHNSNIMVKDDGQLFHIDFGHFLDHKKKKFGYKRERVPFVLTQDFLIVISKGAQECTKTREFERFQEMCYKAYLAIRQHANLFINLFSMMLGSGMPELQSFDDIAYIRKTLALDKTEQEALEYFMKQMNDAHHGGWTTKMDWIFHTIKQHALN
Chain of Phosphatidylinositol 4,5-bisphosphate 3-kinase catalytic subunit beta isoform (P42338 whole entry, canonical isoform): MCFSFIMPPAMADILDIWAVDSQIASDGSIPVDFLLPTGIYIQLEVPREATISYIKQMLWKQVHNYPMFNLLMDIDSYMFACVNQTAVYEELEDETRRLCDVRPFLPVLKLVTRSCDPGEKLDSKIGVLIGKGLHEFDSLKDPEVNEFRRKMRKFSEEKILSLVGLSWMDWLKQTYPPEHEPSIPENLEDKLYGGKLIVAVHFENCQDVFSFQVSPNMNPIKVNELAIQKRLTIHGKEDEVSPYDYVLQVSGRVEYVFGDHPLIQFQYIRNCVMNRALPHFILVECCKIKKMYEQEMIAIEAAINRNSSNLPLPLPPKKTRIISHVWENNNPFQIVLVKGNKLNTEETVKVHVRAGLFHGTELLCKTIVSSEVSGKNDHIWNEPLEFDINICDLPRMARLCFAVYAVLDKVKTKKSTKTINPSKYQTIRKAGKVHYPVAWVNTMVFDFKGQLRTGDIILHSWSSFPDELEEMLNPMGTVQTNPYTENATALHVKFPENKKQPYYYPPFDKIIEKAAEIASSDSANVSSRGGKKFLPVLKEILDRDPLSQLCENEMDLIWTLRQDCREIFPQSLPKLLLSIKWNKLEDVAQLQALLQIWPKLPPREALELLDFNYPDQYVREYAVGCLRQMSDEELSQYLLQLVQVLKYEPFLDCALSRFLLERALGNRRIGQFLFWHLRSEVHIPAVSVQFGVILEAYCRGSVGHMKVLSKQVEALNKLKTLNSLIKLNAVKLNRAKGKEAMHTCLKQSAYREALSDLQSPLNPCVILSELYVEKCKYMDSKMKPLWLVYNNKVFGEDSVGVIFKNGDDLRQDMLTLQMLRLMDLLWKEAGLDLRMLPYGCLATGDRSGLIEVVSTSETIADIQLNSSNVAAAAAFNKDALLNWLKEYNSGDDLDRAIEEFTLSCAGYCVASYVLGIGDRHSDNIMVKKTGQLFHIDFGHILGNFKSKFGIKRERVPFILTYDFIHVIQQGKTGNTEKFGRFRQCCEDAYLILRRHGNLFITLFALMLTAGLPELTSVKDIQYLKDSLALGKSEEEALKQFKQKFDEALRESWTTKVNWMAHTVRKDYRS

Structure (SMILES) | IC50 [1] [nM] | IC50 [2] [nM] | IC50 [3] [nM] | IC50 [4] [µM] | IC50 [5] [nM] | IC50 [6] [µM] | IC50 [7] [µM]
Nc1nc2ccc(-c3ccc(OCCO)nc3)cc2s1 | 316 | 501 | 1260 | 6.31 | 1260 | 2 | > 100
CCn1ccc(-c2ccc3nc(N)sc3c2)cc1=O | 316 | 316 | 6310 | 50.1 | 3160 | 10 | > 100
Nc1nc2ccc(-c3ccc(=O)[nH]c3)cc2s1 | 3160 | 3980 | 25100 | 50.1 | 10000 | 31.6 | 39.8
COCCOc1ccc(-c2ccc3nc(N)sc3c2)cn1 | 316 | 1000 | 2510 | 7.94 | 3160 | 6.31 | > 100
Nc1nc2ccc(-c3ccc(C(F)(F)F)nc3)cc2s1 | 15800 | 1580 | 2000 | 3.98 | 1000 | 1 | > 100
CCSc1ccc(-c2ccc3nc(N)sc3c2)cn1 | 100 | 631 | 1260 | 5.01 | 1000 | 2 | > 100
Nc1nc2ccc(-c3ccccc3)cc2s1 | 2510 | 501 | 12600 |  |  |  | > 100
Nc1nc2ccc(-c3ccccn3)cc2s1 | 10000 | 2510 | 10000 |  | 12600 | 79.4 | > 100
Nc1nc2ccc(-c3ncccn3)cc2s1 | 15800 | 6310 | > 100000 |  | 31600 | 50.1 | 31.6
CNC(=O)c1ccc(-c2ccc3nc(N)sc3c2)cn1 | 3160 | 2510 | 2000 |  |  |  | 31.6

Other lines, results leading:

IC50 [1] [nM] | IC50 [2] [nM] | IC50 [3] [nM] | IC50 [4] [µM] | IC50 [5] [nM] | IC50 [6] [µM] | IC50 [7] [µM] | Structure (SMILES)
1580 | 501 | 1000 | 2.51 | 1260 | 1.26 | > 100 | Cc1ccc(-c2ccc3nc(N)sc3c2)cn1
1000 | 1000 | 501 | 1.26 | 251 | 1.26 | 31.6 | CC(C)Oc1cncc(-c2ccc3nc(N)sc3c2)c1
3160 | 1580 | 12600 | 31.6 | 3160 | 20 | > 100 | CCn1cc(-c2ccc3nc(N)sc3c2)cn1
631 | 1000 |  |  | 398 | 0.794 | 25.1 | COc1ccc(-c2ccc3nc(N)sc3c2)cn1
501 | 316 | 2510 | 63.1 |  | 5.01 | > 100 | Cn1ccc(-c2ccc3nc(N)sc3c2)cc1=O
25100 | 2510 | 15800 |  | 3980 | 20 | 63.1 | CC(C)n1cc(-c2ccc3nc(N)sc3c2)cn1
1580 | 794 | 3160 |  |  |  | > 100 | Nc1nc2ccc(-c3ccc(CO)nc3)cc2s1
1000 | 316 | 2510 | 15.8 |  | 6.31 | > 100 | COCc1ccc(-c2ccc3nc(N)sc3c2)cn1
2510 | 1000 |  |  |  |  |  | Nc1nc2ccc(-c3ccncc3)cc2s1
1580 | 631 | 2000 |  |  | 1.26 | 31.6 | Nc1nc2ccc(-c3cccnc3)cc2s1
631 | 2000 | 12600 | 15.8 | 1260 | 20 |  | Nc1nc2ccc(-c3cnn(CC4CC4)c3)cc2s1
